The source of these data is article PMC10175918 (Communications Biology, 2023).

SMILES strings stand for the structures. Like-named read-outs stand apart in the source and are kept apart here.

What all share (experiment): TGFα-shedding assay-based GPCR screening with chimeric Gα subunit proteins
Format in all cases: cell-based

Test [1] concerns the target T1, 348 GPCRs (Homo sapiens, UniProt Q6NV75).
T1 construct: expressed in transfected cells; host or cells: HEK293A
To be noted: 10µM, Favipiravir 100μM.

For test [2], the target named is T2, 348 GPCRs (Homo sapiens, UniProt O43614).
T2 construct: expressed in transfected cells; host or cells: HEK293A
T2 sequence (O43614 1-444): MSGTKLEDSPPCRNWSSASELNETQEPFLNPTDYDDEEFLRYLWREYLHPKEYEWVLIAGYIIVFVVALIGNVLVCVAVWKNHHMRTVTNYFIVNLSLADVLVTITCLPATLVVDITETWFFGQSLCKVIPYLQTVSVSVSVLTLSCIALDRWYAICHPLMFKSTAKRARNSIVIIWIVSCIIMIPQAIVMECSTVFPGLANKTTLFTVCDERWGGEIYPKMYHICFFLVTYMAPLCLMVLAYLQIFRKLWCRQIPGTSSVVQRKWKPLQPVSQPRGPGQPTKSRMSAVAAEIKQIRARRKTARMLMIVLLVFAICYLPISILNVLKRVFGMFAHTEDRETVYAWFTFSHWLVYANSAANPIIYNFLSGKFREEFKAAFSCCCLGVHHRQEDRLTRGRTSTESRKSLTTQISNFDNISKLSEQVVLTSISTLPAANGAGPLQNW
The following applies: HCRTR2 (hypocretin (orexin) receptor 2); 10µM, Favipiravir 100μM.

The target in test [3] is T3, 348 GPCRs (Homo sapiens, UniProt Q969V1).
T3 construct: expressed in transfected cells; host or cells: HEK293A
T3 sequence (Q969V1 whole entry): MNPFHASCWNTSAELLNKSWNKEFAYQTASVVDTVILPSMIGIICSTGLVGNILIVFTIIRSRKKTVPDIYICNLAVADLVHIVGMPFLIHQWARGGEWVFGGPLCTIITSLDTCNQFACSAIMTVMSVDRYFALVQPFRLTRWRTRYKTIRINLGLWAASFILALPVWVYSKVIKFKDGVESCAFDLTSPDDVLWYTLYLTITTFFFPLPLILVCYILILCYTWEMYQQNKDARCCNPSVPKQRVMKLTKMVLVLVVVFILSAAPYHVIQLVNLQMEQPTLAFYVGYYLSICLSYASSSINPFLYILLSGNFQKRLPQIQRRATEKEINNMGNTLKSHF
The following applies: 10µM, Favipiravir 100μM.

The target in test [4] is T4, 348 GPCRs (Homo sapiens, UniProt Q92847).
T4 construct: expressed in transfected cells; host or cells: HEK293A
T4 sequence (Q92847 whole entry): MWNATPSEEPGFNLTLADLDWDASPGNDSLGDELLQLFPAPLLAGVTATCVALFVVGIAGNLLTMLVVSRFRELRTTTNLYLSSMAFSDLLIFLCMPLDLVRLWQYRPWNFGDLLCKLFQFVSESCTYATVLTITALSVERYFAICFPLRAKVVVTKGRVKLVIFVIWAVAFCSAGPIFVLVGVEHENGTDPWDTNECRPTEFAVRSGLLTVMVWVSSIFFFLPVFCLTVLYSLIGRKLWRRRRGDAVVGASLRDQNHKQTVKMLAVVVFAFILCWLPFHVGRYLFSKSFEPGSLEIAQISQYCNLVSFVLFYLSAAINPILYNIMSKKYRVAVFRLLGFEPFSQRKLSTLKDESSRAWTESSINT
The following applies: 10µM, Favipiravir 100μM.

Test [5] deals with T5, 348 GPCRs (Homo sapiens, UniProt Q14330).
T5 construct: expressed in transfected cells; host or cells: HEK293A
T5 sequence (Q14330 1-331): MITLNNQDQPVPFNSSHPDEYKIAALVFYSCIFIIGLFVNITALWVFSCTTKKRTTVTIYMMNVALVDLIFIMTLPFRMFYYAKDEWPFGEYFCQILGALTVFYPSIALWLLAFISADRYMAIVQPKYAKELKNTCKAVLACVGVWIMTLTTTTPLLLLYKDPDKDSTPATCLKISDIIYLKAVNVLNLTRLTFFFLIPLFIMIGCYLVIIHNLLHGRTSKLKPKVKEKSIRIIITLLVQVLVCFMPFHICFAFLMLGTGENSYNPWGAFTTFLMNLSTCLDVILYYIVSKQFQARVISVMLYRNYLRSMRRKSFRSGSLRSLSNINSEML
The following applies: GPR18 (G protein-coupled receptor 18); 10µM, Favipiravir 100μM.

The target in test [6] is T6, 348 GPCRs (Homo sapiens, UniProt Q8IZF7).
T6 construct: expressed in transfected cells; host or cells: HEK293A
T6 sequence (Q8IZF7 1-708): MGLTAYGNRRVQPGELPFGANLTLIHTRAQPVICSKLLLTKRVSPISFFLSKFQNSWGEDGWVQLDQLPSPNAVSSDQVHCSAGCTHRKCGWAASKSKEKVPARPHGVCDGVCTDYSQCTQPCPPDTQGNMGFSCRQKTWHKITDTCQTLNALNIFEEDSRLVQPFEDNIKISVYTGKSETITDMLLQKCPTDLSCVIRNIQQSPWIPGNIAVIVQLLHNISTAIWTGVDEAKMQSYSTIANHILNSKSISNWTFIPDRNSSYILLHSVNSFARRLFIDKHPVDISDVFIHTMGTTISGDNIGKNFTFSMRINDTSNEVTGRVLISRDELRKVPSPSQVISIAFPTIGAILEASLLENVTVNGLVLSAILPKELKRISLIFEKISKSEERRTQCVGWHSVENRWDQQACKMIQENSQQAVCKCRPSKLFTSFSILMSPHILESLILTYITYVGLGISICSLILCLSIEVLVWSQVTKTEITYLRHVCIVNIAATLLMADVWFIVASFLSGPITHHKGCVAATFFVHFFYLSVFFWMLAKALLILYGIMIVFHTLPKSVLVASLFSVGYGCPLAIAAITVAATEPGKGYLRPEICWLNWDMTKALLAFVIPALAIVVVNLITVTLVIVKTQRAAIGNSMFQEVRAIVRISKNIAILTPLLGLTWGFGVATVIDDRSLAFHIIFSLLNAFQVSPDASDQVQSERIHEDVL

In test [7] the target is 348 GPCRs (Homo sapiens, UniProt Q9UPC5). The following applies: 10µM, Favipiravir 100μM.
Chain of 348 GPCRs (Homo sapiens, UniProt Q9UPC5) (Q9UPC5 whole entry): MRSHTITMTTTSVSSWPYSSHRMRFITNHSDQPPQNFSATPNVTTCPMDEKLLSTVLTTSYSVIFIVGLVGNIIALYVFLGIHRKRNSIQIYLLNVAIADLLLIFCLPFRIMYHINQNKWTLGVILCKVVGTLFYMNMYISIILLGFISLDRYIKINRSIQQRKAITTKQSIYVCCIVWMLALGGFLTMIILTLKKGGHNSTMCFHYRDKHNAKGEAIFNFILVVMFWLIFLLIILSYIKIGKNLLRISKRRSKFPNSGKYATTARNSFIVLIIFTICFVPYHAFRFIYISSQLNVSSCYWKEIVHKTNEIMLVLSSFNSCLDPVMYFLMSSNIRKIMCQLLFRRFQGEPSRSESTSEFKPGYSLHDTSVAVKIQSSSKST
In test [8] the target is T7, 348 GPCRs (Homo sapiens, UniProt P08172).
T7 sequence (P08172 1-466): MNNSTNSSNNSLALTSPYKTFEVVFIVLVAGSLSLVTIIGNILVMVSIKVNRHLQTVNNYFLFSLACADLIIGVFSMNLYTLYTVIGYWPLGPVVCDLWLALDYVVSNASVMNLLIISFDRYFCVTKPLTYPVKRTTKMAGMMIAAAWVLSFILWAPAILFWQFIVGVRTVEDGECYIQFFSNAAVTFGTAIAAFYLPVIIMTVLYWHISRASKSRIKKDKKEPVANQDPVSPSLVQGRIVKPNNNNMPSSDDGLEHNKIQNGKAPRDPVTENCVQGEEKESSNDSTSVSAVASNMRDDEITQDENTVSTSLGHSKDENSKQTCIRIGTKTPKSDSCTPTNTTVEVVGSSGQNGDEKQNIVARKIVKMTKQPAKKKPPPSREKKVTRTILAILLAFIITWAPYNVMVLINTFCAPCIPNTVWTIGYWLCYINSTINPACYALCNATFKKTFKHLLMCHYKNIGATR

The target in test [9] is T8, 348 GPCRs (Homo sapiens, UniProt Q96LB0).
T8 construct: expressed in transfected cells; host or cells: HEK293A
T8 sequence (Q96LB0 whole entry): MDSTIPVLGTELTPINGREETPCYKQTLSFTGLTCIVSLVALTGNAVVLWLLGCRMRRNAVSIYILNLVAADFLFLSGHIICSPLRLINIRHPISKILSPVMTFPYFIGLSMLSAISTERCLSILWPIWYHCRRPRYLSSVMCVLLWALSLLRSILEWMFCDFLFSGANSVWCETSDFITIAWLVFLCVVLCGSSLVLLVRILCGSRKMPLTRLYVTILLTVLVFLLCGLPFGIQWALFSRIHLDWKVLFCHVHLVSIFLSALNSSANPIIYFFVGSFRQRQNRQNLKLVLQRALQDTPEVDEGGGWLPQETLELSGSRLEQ
To be noted: 10µM, Favipiravir 100μM.

Test [10] concerns the target T9, 348 GPCRs (Homo sapiens, UniProt P60893).
T9 construct: expressed in transfected cells; host or cells: HEK293A
To be noted: 10µM, Favipiravir 100μM.

The mark [11] stands for this setting: read-out: % GPCR activation compared to TPA, GPR153 (G protein-coupled receptor 153).
The mark [12] stands for this setting: read-out: % GPCR activation compared to TPA, MCHR2 (melanin concentrating hormone receptor 2).
[13] abbreviates: read-out: % GPCR activation compared to TPA, GHSR (growth hormone secretagogue receptor).
[14] abbreviates: read-out: % GPCR activation compared to TPA, GPCR GPR111 (G-protein-coupled receptor 111 (ADGRF2)).
[15] abbreviates: read-out: % GPCR activation compared to TPA, GPR34 (G Protein-Coupled Receptor 34).
Setting [16] is: read-out: % GPCR activation compared to TPA, GPCR M2 (Muscarinic acetylcholine receptor M2).
The mark [17] stands for this setting: read-out: % GPCR activation compared to TPA, MRGPRX3 (MAS-related GPR, member X3).
[18] abbreviates: read-out: % GPCR activation compared to TPA, GPR85 (G protein-coupled receptor 85).
[19] abbreviates: GPR153 (G protein-coupled receptor 153), read-out: % GPCR activation compared to TPA.
[20] abbreviates: MCHR2 (melanin concentrating hormone receptor 2), read-out: % GPCR activation compared to TPA.
The mark [21] stands for this setting: GHSR (growth hormone secretagogue receptor), read-out: % GPCR activation compared to TPA.
Setting [22] is: GPR34 (G Protein-Coupled Receptor 34), read-out: % GPCR activation compared to TPA.
[23] abbreviates: MRGPRX3 (MAS-related GPR, member X3), read-out: % GPCR activation compared to TPA.
Setting [24] is: GPR85 (G protein-coupled receptor 85), read-out: % GPCR activation compared to TPA.
[25] abbreviates: GPCR GPR111 (G-protein-coupled receptor 111 (ADGRF2)), read-out: % GPCR activation compared to TPA.
Where [26] appears, read: GPCR M2 (Muscarinic acetylcholine receptor M2), read-out: % GPCR activation compared to TPA.

T9 sequence (P60893 whole entry): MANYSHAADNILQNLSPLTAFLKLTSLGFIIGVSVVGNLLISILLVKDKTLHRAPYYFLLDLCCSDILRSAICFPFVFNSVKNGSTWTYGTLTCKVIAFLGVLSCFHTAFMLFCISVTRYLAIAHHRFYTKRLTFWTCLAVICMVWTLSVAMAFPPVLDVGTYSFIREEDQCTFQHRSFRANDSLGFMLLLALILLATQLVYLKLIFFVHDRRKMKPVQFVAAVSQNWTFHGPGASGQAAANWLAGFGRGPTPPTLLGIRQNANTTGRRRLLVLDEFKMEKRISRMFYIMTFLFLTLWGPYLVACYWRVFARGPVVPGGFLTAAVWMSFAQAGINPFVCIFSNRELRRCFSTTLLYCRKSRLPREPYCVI
T1 sequence (Q6NV75 whole entry): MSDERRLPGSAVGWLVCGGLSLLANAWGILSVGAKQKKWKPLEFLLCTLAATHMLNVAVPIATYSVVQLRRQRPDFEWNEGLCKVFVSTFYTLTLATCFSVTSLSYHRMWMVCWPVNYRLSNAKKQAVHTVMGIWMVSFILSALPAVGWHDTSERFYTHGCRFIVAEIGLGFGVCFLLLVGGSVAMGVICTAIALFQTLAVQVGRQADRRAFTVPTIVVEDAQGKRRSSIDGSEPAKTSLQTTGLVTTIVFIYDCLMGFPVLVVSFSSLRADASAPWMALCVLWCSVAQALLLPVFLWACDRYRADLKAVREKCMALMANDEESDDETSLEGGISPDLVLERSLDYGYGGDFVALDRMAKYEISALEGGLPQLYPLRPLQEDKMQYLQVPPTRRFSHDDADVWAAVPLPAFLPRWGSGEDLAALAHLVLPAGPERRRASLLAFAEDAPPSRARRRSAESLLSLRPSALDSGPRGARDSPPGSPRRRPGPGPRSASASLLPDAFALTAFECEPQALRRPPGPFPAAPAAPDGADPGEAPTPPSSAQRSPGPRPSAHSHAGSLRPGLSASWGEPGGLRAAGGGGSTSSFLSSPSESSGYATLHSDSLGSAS

For `CC(C)OC(=O)[C@H](C)N[P@](=O)(OC[C@H]1O[C@@H](n2ccc(=O)[nH]c2=O)[C@](C)(F)[C@@H]1O)Oc1ccccc1` [sofosbuvir], the activation at 10 µM was -14.2% at 348 GPCRs [1] (setting [11]); -1.19% on 348 GPCRs [3] (setting [12]); -0.354% at 348 GPCRs [4] (setting [13]); -0.382% on 348 GPCRs [6] (setting [14]); -0.895% at 348 GPCRs [7] (setting [15]); 1.35% at 348 GPCRs [8] (setting [16]). In addition, the entries for the “% GPCR activation compared to TPA” value on 348 GPCRs [2] and at 348 GPCRs [5] were -1.966% and -3.042%, respectively. In addition, the activation at 100 µM at 348 GPCRs [9] (setting [17]) was 0.522%; at 348 GPCRs [10] (setting [18]) it was -3.71%.

In the case of `NC(=O)c1nc(F)cnc1O` [favipiravir, 6-fluoro-3-hydroxy-2-pyrazinecarboxamide], the activation at 10 µM at 348 GPCRs [1] (setting [19]) was 0.731%; at 348 GPCRs [3] (setting [20]), -2.23%; at 348 GPCRs [4] (setting [21]), -3.33%; at 348 GPCRs [7] (setting [22]), -0.575%. Also, the “% GPCR activation compared to TPA” value at 348 GPCRs [2] is 0.7248%; at 348 GPCRs [5], -1%. Also, the activation at 100 µM on 348 GPCRs [6] (GPCR GPR111 (G-protein-coupled receptor 111 (ADGRF2)), 100μM, read-out: % GPCR activation compared to TPA) is -1.94%; on 348 GPCRs [8] (GPCR M2 (Muscarinic acetylcholine receptor M2), 100μM, read-out: % GPCR activation compared to TPA), 2.32%; at 348 GPCRs [9] (setting [23]) it was -0.33%; on 348 GPCRs [10] (setting [24]) it was 3.44%.

On to `CCC(CC)COC(=O)[C@H](C)N[P@](=O)(OC[C@H]1O[C@@](C#N)(c2ccc3c(N)ncnn23)[C@H](O)[C@@H]1O)Oc1ccccc1` [remdesivir], for which the activation at 10 µM at 348 GPCRs [1] (setting [11]) was 4.65%; on 348 GPCRs [3] (setting [12]), -3.7%; at 348 GPCRs [4] (setting [13]), 12.2%; at 348 GPCRs [6] (setting [14]), -1.09%; on 348 GPCRs [7] (setting [15]), -1.23%; on 348 GPCRs [8] (setting [16]) it was 6%. Also, the “% GPCR activation compared to TPA” value on 348 GPCRs [2] was 0.0002648%; at 348 GPCRs [5] it was 1.118%. The activation at 100 µM at 348 GPCRs [9] (setting [17]) was -0.608%; on 348 GPCRs [10] (setting [18]), 6.64%.

Consider `N#C[C@@]1(c2ccc3c(N)ncnn23)O[C@H](CO)[C@@H](O)[C@H]1O` [GS441524], for which the activation at 10 µM is -3.34% on 348 GPCRs [1] (setting [19]); -0.458% at 348 GPCRs [3] (setting [20]); -4.16% on 348 GPCRs [4] (setting [21]); -2.52% at 348 GPCRs [6] (setting [25]); -1.27% on 348 GPCRs [7] (setting [22]); 4.87% at 348 GPCRs [8] (setting [26]). For the same compound, the entries for the “% GPCR activation compared to TPA” value on 348 GPCRs [2] and at 348 GPCRs [5] were 2.174% and 2.081%, respectively. Further, the activation at 100 µM was -0.726% on 348 GPCRs [9] (setting [23]) and 2.04% on 348 GPCRs [10] (setting [24]).

For `CC(C)C(=O)OC[C@H]1O[C@@H](n2ccc(NO)nc2=O)[C@H](O)[C@@H]1O` [molnupiravir], the activation at 10 µM at 348 GPCRs [1] (setting [19]) is -23.6%; at 348 GPCRs [3] (setting [20]), -3.92%; at 348 GPCRs [4] (setting [21]) it was 0.166%; on 348 GPCRs [6] (setting [25]), 0.307%; on 348 GPCRs [7] (setting [22]) it was -1.95%; on 348 GPCRs [8] (setting [26]), 0.695%. Besides, the “% GPCR activation compared to TPA” value at 348 GPCRs [2] is recorded as 0.4774%; at 348 GPCRs [5], -5.385%. The activation at 100 µM on 348 GPCRs [9] (setting [23]) was -1.5%; on 348 GPCRs [10] (setting [24]), -2.83%.
